Tested on: surfactant-deficient lavaged rat lungs
Test: Isolated rat lavaged lung model (adult rat lung model), pressure-volume curve
Set-up: species or system rat (male Sprague Dawley)
Details: for PC5 (% TLC): per cent of total lung capacity at 5 cm H2O pressure, deflation limb of P-V curve / PC10 (% TLC): per cent of total lung capacity at 10 cm H2O pressure, deflation limb of P-V curve: peptide-DPPC mixture (or DPPC alone) instilled into lavaged excised rat lungs, 25 mg phospholipid, 100-125 mg/kg, 37° C.; for RESTORATION % (per cent restoration based on PC5 values): relative to surfactant-sufficient (100) and surfactant-deficient (0) lungs, peptide-DPPC mixture or DPPC alone
Description: Methods of testing the synthetic surfactant preparations for efficacy are well known in the art. For example, the synthetic surfactant preparations of the present invention can be tested in any appropriate manner such as in the adult rat lung model (Ikegami, et al., (1979) Pediatr. Res. 13, 777-780). Pressure-volume characteristics of surfactant-depleted rat lungs are similar to those of lungs of infants with hyaline membrane disease and restoration of the pressure-volume relationship of the lung to normal is related to the amount of surfactant instilled in a dose dependent manner. (Bermel, M. S., et al., […] excised rat lungs as a model of surfactant deficiency, Lung 162: 99-113 (1984)). The experimental procedures for animal preparation, pressure-volume curve registration and lung lavage are adapted from those described by Ikegami et al., Pediatr. Res. 11: 178-182 (1977) and Pediatr. Res. 13: 777-780 (1979, and Bermel et al, Lung 162: 99-113 (1984). Male Sprague Dawley rats (200-250 g) are anesthetized with sodium pentobarbital and exsanguinated. The trachea is cannulated and the thoracic organs are removed en bloc. After removal of the adventitious tissue, the trachea and lungs (~2 g) are suspended in saline (0.9%), placed in a vacuum chamber, and degassed according to the procedure of […] et al. the degassed lungs are suspended in saline in a 37° C., jacketed reservoir and the tracheal cannula is connected both to a water manometer and a glass syringe by a T-tube. The glass syringe is placed in an infusion/withdrawal pump. […] The total volume of air infused is recorded as the total lung capacity (TLC) which is generally 14-15 ml. The lungs are then deflated at a rate of 2.5 ml/min until zero pressure is attained. During deflation, pressure is read from the water manometer at 1 cm intervals and recorded. […] After degassing and equilibration, the lungs are rendered surfactant-deficient by repeated lavage with 5 ml/g lavage buffer (0.9% NaCl, 10 mM HEPES, pH 7.4). […] At this point, the lungs are considered surfactant-deficient. […] The mixture is then vortexed again, degassed if foamy, and 2 ml of the test mixture are introduced into and withdrawn from the lungs four times by syringe. When the test mixture is reintroduced to the lungs for the fifth time, it is allowed to remain in the lungs. This procedure is adopted to encourage even distribution of the material throughout the lung. The lungs are degassed, allowed to equilibrate at 37° C. for 5 min, and a P-V measurement is performed. Lungs are studied while supported in saline at 37° C. as opposed to ambient temperature since the physical characteristics of the surfactants may be dependent upon temperature. […] Data are presented in terms of the % TLC. […] Comparisons are based on per cent restoration=([…] ×100/(PC5 (sufficient) -PC5(deficient)) and made by one-way analysis of variance using the general linear models procedure with specific contrasts of the means (SAS Institute Inc., Cary, N.C.). […] The restoration based upon the PC5 values was used to compare the test mixtures.

Row | Molecule | effect on the pressure-volume (P-V) curves of the lavaged lung (DPPC alone, without peptide) | PC5 (% TLC): per cent of total lung capacity at 5 cm H2O pressure, deflation limb of P-V curve [% TLC] | PC10 (% TLC): per cent of total lung capacity at 10 cm H2O pressure, deflation limb of P-V curve [% TLC] | RESTORATION % (per cent restoration based on PC5 values) [%]
1 | CCCCCCCCCCCCCCCC(=O)OC[C@H](COP(=O)([O-])OCC[N+](C)(C)C)OC(=O)CCCCCCCCCCCCCCC [DPPC, L-α-dipalmitoylphosphatidylcholine] | no significant effect | 13 ± 1 | 31 ± 2 | 11 ± 8
2 | HBB-Aoc-Glu-Trp-Ala-Lys-NH2 [SEQ ID NO: 5] | – | 55 ± 4 | 77 ± 2 | 81 ± 7

Reference: patent publication US5886156A, “Synthetic peptide lung surfactants having covalently bonded antioxidants” (Merrell Pharmaceuticals Inc., priority 1996, dated 1999)
